Data published in article PMC8825254, “Rational design of Striga hermonthica-specific seed germination inhibitors” (Plant Physiology, 2021).

Columns and labels:
[1] = system: ShHTL7–ShMAX2-CTH interaction; assay: GST pull-down of His-ShHTL7 by CTH of ShMAX2; assay type: binding, Striga hermonthica; details: 100 µM compound, 100 µM GR24; result in words
Procedure: Purified GST-CTH of ShMAX2 and GST were bound to the Glutathione Sepharose 4B Beads (GE healthcare). Purified 6× His-ShHTL7 was incubated with 100 μM KK023-N1 and Triton X-100 for 3 h, separately. Then apo ShHTL7 was added to the beads bound by GST-CTH of ShMAX2 in the presence and absence of 100 μM GR24. Similarly, ShHTL7 incubated with KK023-N1 and Triton X-100 were added to the beads bound by GST-CTH of ShMAX2 in the presence of 100 μM GR24. Apo ShHTL7 was added to the beads bound by GST only in the presence of 100 μM GR24 as a control. All the samples were washed with lysis buffer (50-mM Tris–HCl pH 8.0, 200 mM NaCl, 2 mM DTT) three times and then eluted with addition of 20 mM reduced glutathione. Thus, the eluted protein was subjected to Western blot using an antibody specific to 6XHis (Abcam, Cambridge, UK).

OsD14 = biological target: T1, OsD14 (Oryza sativa subsp. japonica, UniProt Q10QA5); assay: YLG hydrolysis competition assay with OsD14; assay type: biochemical, rice (Oryza sativa); details: Figure 3D-F; mean ± SD, n = 3; no unit printed with values (x-axis µM); read-out: IC50, OsD14-mediated YLG hydrolysis (Figure 3)
T1 construct: made in house; host or cells: Escherichia coli BL21 (DE3)
T1 sequence (Q10QA5 1-318): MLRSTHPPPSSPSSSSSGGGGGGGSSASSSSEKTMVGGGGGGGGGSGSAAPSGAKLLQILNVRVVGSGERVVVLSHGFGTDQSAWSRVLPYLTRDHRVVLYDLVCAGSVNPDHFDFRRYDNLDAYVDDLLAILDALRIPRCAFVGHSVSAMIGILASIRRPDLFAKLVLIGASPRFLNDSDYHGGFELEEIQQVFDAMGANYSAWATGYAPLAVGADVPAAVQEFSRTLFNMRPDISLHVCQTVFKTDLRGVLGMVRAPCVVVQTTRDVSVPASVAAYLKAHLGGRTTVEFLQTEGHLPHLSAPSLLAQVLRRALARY

ShHTL7 [2] = biological target: T2, ShHTL7 (Striga hermonthica, UniProt A0A0M3PNA2); assay: DSF thermal stability of ShHTL7; assay type: binding; details: 0 to 100 µM; result in words
T2 sequence (A0A0M3PNA2 1-271): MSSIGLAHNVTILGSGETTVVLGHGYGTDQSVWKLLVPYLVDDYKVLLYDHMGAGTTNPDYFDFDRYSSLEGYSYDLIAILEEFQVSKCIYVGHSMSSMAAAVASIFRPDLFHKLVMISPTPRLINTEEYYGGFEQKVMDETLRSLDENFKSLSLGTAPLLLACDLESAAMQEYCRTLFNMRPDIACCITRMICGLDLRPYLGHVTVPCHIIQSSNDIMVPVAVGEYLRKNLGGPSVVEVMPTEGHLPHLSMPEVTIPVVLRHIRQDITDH
Procedure: About 10 µM of ShHTL7 purified protein was incubated with various concentrations of KK023-N1, Triton X-100, or KK094 (ranging from 0 to 100 µM) for 30 min. Then SYPRO Orange (reporter dye) was added to 1× final concentration. The reactions were carried out in 25 µL 1× PBs buffer. The assay was performed on CFX96 Real-Time System (BIO-RAD, Hercules, CA, USA) thermal cycler on 96-well quantitative polymerase chain reaction (qPCR) white plate, and the plate was sealed with adhesive qPCR plate seal to prevent samples evaporation ([Bai et al., 2019]). First, samples were heated to 25°C for 1 min followed by linear increase in the temperature ramp from 25°C to 99°C at a rate of 0.5°C/15 s. The change in the protein folding was monitored by the changes in the fluorescence of the reporter dye, and the data were analyzed by the machine software that plots the inflection point of fluorescence against temperature. Data were exported into Excel, and replicates were averaged to generate the graph.

ShHTL7 [3] = biological target: T2, ShHTL7; assay: YLG hydrolysis competition assay with ShHTL7; assay type: biochemical
Procedure: About 0.33 µM of ShHTL7 protein was used to conduct in vitro hydrolysis of YLG (1 µM) as a substrate in a total volume of 100 µL of phosphate-buffered saline (1× PBS) containing 0.1% DMSO in 96-well black plate (Greiner Kremsmünster, Austria; [Tsuchiya et al., 2015]). The hydrolysis of YLG over time and changes in the fluorescence intensity was measured by SpectraMax i3 (Molecular Devices, San Jose, CA, USA) using an excitation wavelength of 480 nm and detection wavelength of 520 nm and recorded at 10 min intervals for 2 h. YLG in 1× PBS without protein was used as a control. […] Measurement of the fluorescence was conducted in SpectraMax i3 (Molecular Devices) using the above-mentioned method. The relative fluorescence unit was calculated by subtracting the auto-fluorescence of YLG in the buffer from the fluorescence values of YLG in the presence of a protein. The inhibitory curve and IC50 were determined using https://www.aatbio.com/tools/ic50-calculator website.

[4] = system: Rice WT (cv Nipponbare) seedlings; assay: Rice micro tillering assay, WT, hydroponics; assay type: in vivo, rice (Oryza sativa); details: 10, 50 and 100 µM, 2 weeks, result in words
Procedure: Rice seeds of WT (cv Nipponbare) or SL-deficient mutant (d17), were surface sterilized with 2.5% NaClO and 0.05% of Tween-20 for 10 min, and rinsed 6 times with sterilized MilliQ water. About 30 seeds were placed on sterilized Magenta GA-7 plant culture box containing 0.5% MS medium with 0.4% agar and incubated at 30°C in dark. After 2 d, boxes were moved to a growth chamber and allowed to grow for another 5 d under fluorescent white light (130–180 μM m^−2 s^−1). Equally grown seedlings were transplanted in 50-mL black tubes filled with Hoagland nutrient solution (1 seedling/tube). Seedlings were treated with 10, 50, and 100 µM of each compound (KK023-N1, Triton X-100, and KK094). The compounds were applied twice a week for 2 weeks to test their effects on the growth of WT plants. SL-deficient seedlings (d17) were treated as WT but with the addition of 1 µM GR24. Number of tillers per plant, plant height, and dry biomass were measured at final harvest.

Structure (SMILES): COc1ccc(CCCc2cccc3c2CCN3C(=O)n2ccnn2)cc1 [KK023-N1]
- Effect on GR24-dependent pull-down of His-ShHTL7 by GST-CTH of ShMAX2 [1]: could inhibit such interaction
- IC50 (OsD14): 29.6 ± 3.77 µM
- Effect on SYPRO orange fluorescence peak of ShHTL7 (ShHTL7 [2]): decreased the fluorescence of the SYPRO orange
- Effect on melting temperature of ShHTL7 (ShHTL7 [2]): did not affect the melting temperature
- IC50 (ShHTL7 [3]): 1780 nM
- Effect on dry biomass of WT rice [4]: except at 100 µM concentration that led to a reduction in biomass
- Effect on plant height of WT rice [4]: did not observe any significant negative impact
- Effect on tillering of WT rice [4]: did not observe any significant negative impact
